Source: patent EP0256847B1, “Oxytocin and vasopressin antagonists” (Merck & Co., Inc., priority 1986, dated 1988)
*1 amine or outer side, *2 acyl side, *3 side chain or, on linkers, in order; H or OH if unused. Where a SMILES comes first, the peptide text is derived from it. [ ]: non-standard residue; d: D form. ξ: configuration not given here. X2 = O=C([C@@H]1CCCNN1[*:1])[*:2]; ξN(OH)Ile(3ξ) = CCC(C)C(NO)C(=O)O; X1 = O=C([C@H]1CCCNN1[*:1])[*:2]; dNMeF = CN[C@H](Cc1ccccc1)C(=O)O; NMeF = CN[CH](Cc1ccccc1)C(=O)O; X3 = O=C(C1CCCNN1[*:1])[*:2]

Target: oxytocin receptor
Experiment: [³H]Oxytocin binding assay, crude membrane preparation of rat uterus
Settings: concentration of test compound to inhibit [³H]oxytocin binding by 50%; rat uterus membranes; read-out: IC₅₀ [³H]OT (uterus)
Text: Oxytocin receptors have been identified in mammalian uterine tissue through the use of in vitro radioligand binding assays. These receptor binding sites mediate the contractile response of the uterine myometrium to oxytocin. […] The assay uses a crude membrane preparation of rat uterus as the source of oxytocin receptors. […]

Structure (SMILES) | IC50
CC[C@H](C)[C@@H]1NC(=O)[C@@H](Cc2ccccc2)NC(=O)[C@@H]2CCCN2C(=O)[C@@H](Cc2ccccc2)N(C)C(=O)[C@@H]2CCCNN2C(=O)[C@H]2CCCNN2C1=O [Example 9] (cyclo([X1][X2][dNMeF]P[dF]I)) | 170 ± 15 nM
CCC(C)C1C(=O)N2NCCCC2C(=O)N2NCCCC2C(=O)N(C)C(Cc2ccccc2)C(=O)N2CCCC2C(=O)NC(Cc2ccccc2)C(=O)N1O (centres unmarked) [Formula I] (cyclo([ξN(OH)Ile(3ξ)][X3][X3][NMeF]PF); configuration not given here) | 370 ± 70 nM
